Data taken from US9303006B2, “Line leaf inula flower lactone A and methods for preparing and using the same for treating myocarditis” (SHANXI ZHENDONG PILOT BIOLOGICAL SCIENCE AND TECHNOLOGY …, priority 2012, dated 2016).
Where “and” joins values, the source holds several entries; their conditions need not be identical. Equal values may be shown once. Entries after “also recorded” stand apart in the source; their conditions may differ.

Key:
[1] = test system: coxsackie B group virus B3 type Nancy strains (CVB3); experiment: CVB3-infected mice myocardial virus measured on cell model at 7th day (heart homogenate 1:10, cell lesions); assay type: in vivo, Balb/c male mice; conditions: for 1:10 (cell lesions from myocardial homogenate) / Lesions rate % / Average disease rate % / Reduce lesions: 7th day; for 1:10 (cell lesions from myocardial homogenate) / Lesions rate %: individual mice NO 1-5, listed as leaves Inula flowers lactone A; for Average disease rate %: virus control 90%; for Reduce lesions: vs virus control
Procedure: (§1) The thin Leaf inula flower lactone A compound from Example 1 was used; a viral strain: coxsackie B group virus B3 type Nancy strains (CVB3) was used at a virus infection dose of 10LD50 virus 0.2 ml through abdominal cavity infection in mice. The animals used were Balb/c male mice, 13 g to 15 g, from Shanghai West S&P-Bick Experimental Animals Co., Ltd. with animal number: qualified SCXX (Shanghai), 2008-0016. The positive control medicine was human recombinant interferon alpha 2 a, YinTeFen, Shenyang Junior Pharmaceutical co., Ltd., Product batch number 20090708.
(§2) Preparation and administration: the line leaf inula flower lactone A compound was weighed, ground, and suspended in 0.5% CMC (carboxymethyl cellulose) mixture at 10 mg/ml solution. Oral administration of the medicine was conducted for once per day, every time at 0.5 ml, for 7 days.
(§3) The experimental groups included (1) the viral infection group, each group had 10 mice, were given 0.5% CMC solution and virus.
(§4) Another group of 10 mice, with infection, was weighed after 7 days. Four mice were taken to detect cardiac function, and killed and dissected for collecting blood to test neutralizing antibody, heart weighing calculation index, and grinding the heart, with three resistance MEM fluid containing 10%. 1:10 dilution, on the cell model to detect coxsackie virus in mice drop degree (to observe the myocardial cell lesions) separation of virus infection.

TNF-α = experiment: Serum TNF-α in the mouse EAM model; assay type: in vivo, mice
Procedure: (§5) Pig myocardial myosin (PCM, 1 mg/ml; Sigma, St. Louis, Mo.) (Sigma), and equal volume of Freund's Complete Adjuvant (FCA, Sigma St. Louis, Mo.), were in an uniform emulsification and mixed into a homogeneous emulsion, where the mycobacterium tuberculosis H37Ra bead (Difco, Detroit, Mich.) with final concentration at 5 mg/ml. In the 0th day, the emulsion 0.2 ml (including antigen 200 μg) was taken and subcutaneously administered at the bilateral inguinal and multiple points under the armpit in mice. Seven days after the first immunization, the same procedure was performed to strengthen the immune once. The animals were divided into groups, each group had six mice.
(§6) Beginning on the day of immunity, the mice were given line leaf inula flower lactone A continuously for 21 days. Two dosing methods were applied:
(§7) (1) intraperitoneal injection: Line leaf inula flower lactone A of Example 1 was dissolved in phosphate buffer solution (PBS) (containing 5% DMSO (dimethyl sulfoxide)). The 4 concentration gradients were at 2.5 mg/kg/d^−1 (2.5 mg/kg every time, once a day); 5 mg/kg/d^−1; 10 mg/kg/d^−1; and 20 mg/kg/d^−1.
(§8) Mice after 21 days were killed by taking off the neck, shearing heart, weighing and take photos, pathological section (HE hematoxylin-eosin staining), cytokine TNF-α change.
(3) TNF-α change. TNF-α was an inflammation factor that played an important role in the onset of the EAM. […]

mouse EAM model = experiment: Mouse experimental autoimmune myocarditis (EAM) model: HW/BW, cardiac morphology, HE pathology; assay type: in vivo, mice
Procedure: as §5, §6, §7
(2) Intragastric Administration: Line leaf inula flower lactone A suspended in 0.5% CMC-Na (carboxymethyl cellulose sodium). The 3 concentration gradients were at: 10 mg/kg/d^−1; 50 mg/kg/d^−1; and 100 mg/kg/d^−1.
as §8
(1) heart and body weight ratio (HW/BW). Myocarditis in mice after the onset of the myocarditis should have the heart weight/body weight ratio larger than the model group, if the medication was effective, the ratio should be small and close to the normal group.
(2) Cardiac morphology. After the onset of the EAM in mice, the heart appeared swelling and pale as the result of the infiltration by inflammatory cells. Intraperitoneal injection of the line leaf inula flower lactone A (XX-3) were given at various dosages.
(4) pathology (conventional HE staining). Mice were killed by taking off the neck, heart was taken out, and residual blood was removed. Each heart was fixed in 10% formaldehyde, paraffin embedded, continuous sliced with conventional HE staining and observed under the microscope. The model group had visible focal myocardial cell degeneration necrosis, cytoplasm red dye, nuclear disappeared, with some muscle dissolved, interstitial broadening, and various inflammatory cell infiltration.

CVB3-Infected Mice = experiment: Live body weight in CVB3-infected mice; assay type: in vivo, Balb/c male mice
Procedure: as §1, §2, §3, §4

[2] = test system: coxsackie B group virus B3 type Nancy strains (CVB3); experiment: Life protection (survival time) of mice infected by CVB3; assay type: in vivo, Balb/c male mice; conditions: for Survival time M: CVB3-infected mice, observed 14 days; for prolonged survival time, extended percentage: vs virus control
Procedure: as §1, §2, §3
Test process was that after virus infection in mice (except the normal control group) for 2 hours, total drug delivery was performed 7 days in a row, observation was conducted until 14 days. The incidence and deaths were recorded every day, and the average survival days prolongation of life were calculated with p value calculation.

[3] = test system: coxsackie B group virus B3 type Nancy strains (CVB3); experiment: Serum neutralizing antibody in CVB3-infected mice; assay type: in vivo, Balb/c male mice; conditions: oral treatment; concentration-response relationship by 7 days
Procedure: as §1, §2, §3
as §4, with “1:10 dilution, on the cell model to detect coxsackie virus in mice drop degree (to observe the myocardial cell lesions) separation of virus infection.” left out

SMILES: C=C1C(=O)O[C@H]2C[C@@H](C)[C@@H]3[C@@H](OC(C)=O)C[C@H](O)[C@@]3(C)[C@@H](OC(C)=O)[C@H]12 [line leaf inula flower lactone A]
- 1:10 (cell lesions from myocardial homogenate) ([1]; 10 mg/kg oral): + (: + 50%); also recorded: ++ (++ 100%)
- Lesions rate % ([1]; 10 mg/kg oral): 50% (4×) and 100%
- Average disease rate % ([1]; 10 mg/kg oral): 60%
- Reduce lesions ([1]; 10 mg/kg oral): 33.33%
- 1:10 (cell lesions from myocardial homogenate) ([1]; 50 mg/kg oral): ± (plus or minus: 0%); also recorded: + (: + 50%); also recorded: ++ (++ 100%)
- Lesions rate % ([1]; 50 mg/kg oral): 25% and 50% (3×) and 100%
- Average disease rate % ([1]; 50 mg/kg oral): 55%
- Reduce lesions ([1]; 50 mg/kg oral): 38.89%
- 1:10 (cell lesions from myocardial homogenate) ([1]; 100 mg/kg oral): ± (plus or minus: 0%); also recorded: + (: + 50%)
- Lesions rate % ([1]; 100 mg/kg oral): 25% (2×) and 50% (3×)
- Average disease rate % ([1]; 100 mg/kg oral): 40%
- Reduce lesions ([1]; 100 mg/kg oral): 55.56%
- effect on the coxsackie virus replication in the myocardial ([1]; CVB3-infected mice, oral treatment): inhibitory effect
- levels of serum TNF-α vs model group (TNF-α; intraperitoneal injection 20 mg/kg, 21 days, #P<0.05): the difference was significant
- levels of serum TNF-α vs model group (TNF-α; intraperitoneal injection, 21 days after first immunization, FIG. 4): decreased
- curative effect on EAM in mice (mouse EAM model; 100 mg/kg/d intragastric administration): has certain curative effect
- pathology (HE staining), efficacy (mouse EAM model; intragastric administration at 100 mg/kg·d^−1): worked the best
- Cardiac morphology, effect on the EAM model (mouse EAM model; intragastric administration, 21 days, FIG. 3): has curative effect on the EAM model
- Cardiac morphology, efficacy (mouse EAM model; intraperitoneal injection 20 mg/kg/d^−1, 21 days): worked the best efficacy
- heart and body weight ratio (HW/BW) (mouse EAM model; intraperitoneal injection 20 mg/kg/d^−1, 21 days, FIG. 1): changed HW/BW significantly
- pathology (HE staining), efficacy (mouse EAM model; intraperitoneal injection at 20 mg/kg·d^−1): worked the best
- occurrence of the EAM in mice (mouse EAM model; intraperitoneal injection of 20 mg/kg/d): prevents the occurrence of the EAM in mice
- most effective dose (cardiac morphology) (mouse EAM model; intraperitoneal injection, 21 days): 20 mg/kg/d^−1
- Cardiac morphology, degree and extent of the lesion vs model and solvent control groups (mouse EAM model; intraperitoneal injection, various dosages (2.5-20 mg/kg/d^−1), 21 days, FIG. 2): various degrees of improvement
- pathology (HE staining), myocardial inflammation (mouse EAM model; various dosages, vs model and solvent control groups, FIG. 5): had curative effect on myocardial inflammation in mice
- Live body weight M ± SD (CVB3-Infected Mice; 10 mg/Kg, 4 days): 15.23 ± 1.01
- Live body weight M ± SD (CVB3-Infected Mice; 10 mg/Kg, 8 days): 15.59 ± 0.89
- Live body weight M ± SD (CVB3-Infected Mice; 10 mg/Kg, 14 days): 17.92 ± 1.10
- Live body weight M ± SD (CVB3-Infected Mice; 10 mg/Kg, Before): 14.59 ± 0.71
- Live body weight M ± SD (CVB3-Infected Mice; 50 mg/Kg, 4 days): 15.14 ± 0.68
- Live body weight M ± SD (CVB3-Infected Mice; 50 mg/Kg, 8 days): 16.03 ± 0.96
- Live body weight M ± SD (CVB3-Infected Mice; 50 mg/Kg, 14 days): 18.33 ± 0.80
- Live body weight M ± SD (CVB3-Infected Mice; 50 mg/Kg, Before): 14.58 ± 0.49
- Live body weight M ± SD (CVB3-Infected Mice; 100 mg/Kg, 4 days): 15.13 ± 0.88
- Live body weight M ± SD (CVB3-Infected Mice; 100 mg/Kg, 8 days): 16.1 ± 1.05
- Live body weight M ± SD (CVB3-Infected Mice; 100 mg/Kg, 14 days): 18.21 ± 0.86
- Live body weight M ± SD (CVB3-Infected Mice; 100 mg/Kg, Before): 14.57 ± 0.55
- Survival time M ([2]; 10 mg/kg oral once per day for 7 days): 8.9 days
- prolonged survival time, extended percentage ([2]; 10 mg/kg oral): 21.92%
- Survival time M ([2]; 50 mg/kg oral once per day for 7 days): 9 days
- prolonged survival time, extended percentage ([2]; 50 mg/kg oral): 23.29%
- Survival time M ([2]; 100 mg/kg oral once per day for 7 days): 9.4 days
- prolonged survival time, extended percentage ([2]; 100 mg/kg oral): 28.77%
- activity against coxsackie virus ([2]; summary statement, concentration-response correlation): has activity against coxsackie virus
- effect on neutralizing antibodies in the CVB3-infected mice [3]: improved the neutralizing antibodies
